{"source": "patent US10301308B2", "about": "“Azetidine derivatives for tau imaging” (Eli Lilly and Company, priority 2015, dated 2019)", "key": {"[1]": {"molecular_target": "PHF (tau from Alzheimer's disease donors) (Homo sapiens, UniProt P10636)", "sequence (P10636 623-708 limits assumed)": "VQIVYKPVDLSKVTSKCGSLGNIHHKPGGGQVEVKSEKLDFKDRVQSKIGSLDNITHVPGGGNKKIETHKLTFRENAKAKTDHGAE", "experiment": "Saturation binding of radiolabeled compound to PHF (Kd determination)", "settings": "tau obtained from donors with Alzheimer's disease", "source_text": "Purified, soluble PHF is isolated from AD brain tissue using a protocol modified from the procedure described by Jicha, et al. (G. A. Jicha, A. O'Donnell, C. Weaver (1999) “Hierarchical phosphorylation of recombinant tau by the paired-helical filament-associated protein kinase is dependent on cyclic AMP-dependent protein kinase” J Neurochem. 72(1):214). Briefly, AD cortex is homogenized using a handheld Kinematica Polytron, followed by high pressure batch—gas expansion using a Parr Cell disruption bomb. Crude homogenate is centrifuged at 28 kg to pellet cell debris. […]\nThe dissociation constant [Kd] for the radiolabeled compound 3-(3-[18F]-fluoroazetidin-1-yl)-8-methylbenzo[4,5]imidazol[1,2-a]pyridine is determined by saturation binding, in which the total and nonspecific binding of the radioligand are measured at various radioligand concentrations. […] After incubation for 1.5 h at 37° C., the bound radioactivity is harvested by vacuum filtration onto Millipore MultiScreenHTS 96-well glass fiber FB filter plates, using a Millipore MultiScreenHTS Vacuum Manifold, followed by five washes with PBS. Filters containing bound 3-(3-[18F]-fluoroazetidin-1-yl)-8-methylbenzo[4,5]imidazo[1,2-a]pyridine are assayed for radioactivity in a Wizard 2480 automatic gamma-counter [Perkin Elmer]. […]"}, "[2]": {"tested_on": "normal human brain tissue", "experiment": "Autoradiography on normal versus AD human brain slices, less stringent or alcohol free washes", "type": "binding", "source_text": "In order to show the absence of non-tau binding, autoradiography scans are obtained from 3-(3-[18F]-fluoroazetidin-1-yl)-8-methylbenzo[4,5]imidazo[1,2-a]pyridine on normal human brain tissue. The experimental procedure is the same as provided in Example 5 except that only 20 uCi of 18F-ligand is applied to the tissue slices and the washing conditions are less stringent. […] The autoradiography is further carried out with no ethanol in the washing solutions."}, "[3]": {"experiment": "Mouse PET/CT time activity curves", "type": "in vivo, CD-1 wild type mice", "procedure": "Dynamic Micro-Positron Emission Tomography (mPET) images are obtained from CD-1 wild type mice using 3-(3-[18F]-fluoroazetidin-1-yl)-8-methylbenzo[4,5]imidazo[1,2-a]pyridine. Micro-Computed Tomography (mCT) of each subject is used as anatomical reference for image analysis. Biodistribution of the tracer in brain, muscle, bone, liver, and kidney is assessed by generating Time Activity Curves (TAC) using the fused mPET/mCT images. An INVEON multimodality scanner (Siemens, Germany) is used for mPET/mCT. All animal work is performed in accordance with the University of Sciences Institutional Animal Care & Use Committee-approved procedures.\nAnimals are anesthetized with 3% isoflurane/97% oxygen and are placed on the scanner bed. A short high-resolution CT scan is first performed for anatomical registration, followed by a 120-minute PET scan. During the PET scan a water heating system is placed underneath the bed to help maintain the body temperature. Within 3 minutes after the beginning of the PET acquisition, the [18F]-labeled compound 3-(3-[18F]-fluoroazetidin-1-yl)-8-methylbenzo[4,5]imidazo[1,2-a]pyridine is administered to the animals via tail vein injection (250 uCi in a total volume of 200 uL saline). A PET image is generated for each minute of the acquisition time. Uptake of the tracer is obtained by visually drawing regions of interest based on the fused PET/CT images, and the corresponding activity values are determined using the INVEON Research Workplace software (Siemens, Germany). All values are represented as percent injected dose per gram (% ID/g).\nThe mouse PET/CT time activity curves of 3-(4-(2-[18F]-fluoroethyl)piperidin-1-yl)-8-methoxybenzo[4,5]imidazo[1,2-a]pyridine (T821) (See FIG. 9) and of 3-(4-[18F]-fluoropiperidin-1-yl)-8-methoxybenzo[4,5]imidazo[1,2-a]pyridine (T798) (See FIG. 10) are obtained as described in Assay Example 7 (T821 and T798 are recited in US2011/0182812). […] Therefore, when imaging with T821 and/or T798, the undesirable non-tau PET signals from the skull bones could interfere with desired tau signals from the brain cortex. Thus, in addition to the lack of selectivity for T821 and T798, these compounds would further represent poor candidates for human brain tau PET tracers because of the interfering radioactivity signal from bone. […] The advantageous properties of Compound 8 are useful to provide enhanced tau PET imaging in humans. This combination of critical properties was not known and could not have been predicted from existing tau imaging compounds."}, "[4]": {"tested_on": "tau protein", "experiment": "Clinical PET imaging of tau protein in the brain (SUVr)", "type": "in vivo, human", "procedure": "Clinical evaluation of 3-(3-[18F]-Fluoroazetidin-1-yl)-8-methylbenzo[4,5]imidazo[1,2-a]pyridine (Compound 8) as a PET radioligand for imaging tau protein deposition in patients with AD or other neurodegenerative disorders is conducted in healthy volunteers. AD patients, or Chronic Traumatic Encephalopathy (CTE) subjects, by completion of one or more PET scans with Compound 8. Dynamic PET imaging is acquired on a Siemens ECAT EXACT HR+ over 150 minutes following Compound 8 or [18F]AV-1451 injection (0-60 and 90-150 minute imaging segments). Compound 8 or [18F]AV-1451 scans are acquired similarly in two imaging sessions. A brain MRI is also obtained. PET and MRI images are aligned and normalized, and ATLAS-based volumes of interest (VOI) are applied to the dynamic PET series. Compound 8 or [18F]AV-1451 are evaluated in terms of kinetic profile as well as target region to cerebellum standardized uptake value ratio (SUVr between 100-120 min) between healthy volunteers and AD or CTE subjects."}, "[5]": {"settings": "mouse PET/CT time activity curves"}, "[6]": {"settings": "tail vein injection, 120-minute PET scan"}}}
{"compound": "Cc1ccc2nc3cc(N4CC([18F])C4)ccn3c2c1", "note": "[Compound 8, 3-(3-[18F]-fluoroazetidin-1-yl)-8-methylbenzo[4,5]imidazo[1,2-a]pyridine]", "values": [{"measurement": "Kd", "setting": "[1]", "value": "0.85 ± 0.02", "unit": "nM"}, {"measurement": "blocking of signal in AD brain tissue", "setting": "[2]; AD30121, frontal cortex", "value": "can be blocked by non-radiolabelled compound or with the known tau PET tracer T807"}, {"measurement": "autoradiography signal in normal cortical or white matter tissue compared to [18F]T807", "setting": "[2]; no ethanol in the washing solutions", "value": "much lower autoradiography signal"}, {"measurement": "radioactivity signal in normal tissue", "setting": "[2]; washes PBS, 10% ethanol/PBS, 30% ethanol/PBS, PBS, vs AD brain tissue", "value": "considerably lower than in AD brain tissue"}, {"measurement": "bone uptake of radioactivity", "setting": "[3]; [5]", "value": "negligible radioactivity signal in bone"}, {"measurement": "brain uptake compared to T821 and T798", "setting": "[3]; [5]", "value": "significantly superior and surprising brain uptake"}, {"measurement": "bone uptake of radioactivity", "setting": "[3]; mouse PET/CT time activity curves, listed as 3-(3-[18F]-Fluoroazetidin-1-yl)-8-methylbenzo[4,5]imidazo[1,2-a]pyridine", "value": "no significant uptake of radioactivity in bone tissue"}, {"measurement": "brain entry compared with [18F]AV-1451", "setting": "[3]; [6]", "value": "higher % ID/g than [18F]AV-1451"}, {"measurement": "clearance from brain", "setting": "[3]; [6]", "value": "cleared quickly"}, {"measurement": "SUVr values compared to [18F]AV-1451", "setting": "[4]; AD subjects", "value": "slightly higher SUVr values compared to [18F]AV-1451"}, {"measurement": "mean SUVr averaged over all regions", "setting": "[4]; AD subjects", "value": "~1.6"}, {"measurement": "uptake in cortical brain regions, AD subjects compared with healthy controls", "setting": "[4]; AD subjects vs healthy controls", "value": "Higher uptake"}, {"measurement": "SUVr in other cortical regions", "setting": "[4]; CTE subject", "value": "~1.0"}, {"measurement": "SUVr in focal sub-regions with high uptake", "setting": "[4]; CTE subject, sub-regions of inferior lateral parietal, superior parietal and posterior temporal cortex", "value": "~1.5"}, {"measurement": "mean SUVr averaged over all regions", "setting": "[4]; healthy volunteer subjects", "value": "~1.1"}, {"measurement": "SUVr in cortical regions", "setting": "[4]; healthy volunteer subjects, target region to cerebellum", "value": "1.0-1.1"}]}
